From patent EP4467141A1, “PYRAZOLO-QUINOLINES AS SELECTIVE INHIBITORS OF GENOTOXIC STRESS-INDUCED IKK/NF- KB PATHWAYS FOR CANCER THERAPY” (Max-Delbrück-Centrum für Molekulare Medizin in der …, priority 2023, dated 2024)
Entries after “also recorded” stand apart in the source; their conditions may differ. Where two headings read alike, the source gives them in different places.

Columns and labels:
BIRC3 = test: RT-qPCR mRNA expression analysis of BIRC3 in U2-OS cells after irradiation; assay type: cell-based; details: 10 µM, 8 hours after 10 Gy irradiation
[1] = system: NF-κB subunit p65 phosphorylation (S536); test: Western blot of p65 phosphorylation (S536) after DNA damage (irradiation or etoposide) in U2-OS cells; assay type: cell-based; details: for phosphorylation of p65 at serine 536 after DNA damage: 1-hour pre-treatment, irradiation (IR, 20 Gy), 90 min; for activity in cell-based NF-κB activation assays: 10 µM, p65 phosphorylation and NFKBIA expression after irradiation
Experimental: Fig.1: Identification of inhibitors specific for DNA damage-induced NF-κB activity. (A) Flowchart representing the high-throughput chemical library screening. A screen/counter-screen strategy was used by stimulating NF-κB in U2-OS cells with etoposide (50 µM for 90 min) and hits were counter-screened with TNFα (10 ng/ml for 20 min). Cells were pre-treated with compounds (10 µM) for 1 hour before stimulation, fixed, and percent p65 nuclear translocation measured by fluorescence microscopy. IC50 values were used for final selection. (B) Comparison of mean p65 nuclear translocation following either etoposide or TNFa stimulation after treatment with each counter-screened hit compound. Values were normalized to etoposide or TNFα positive controls. Specific inhibitors (red) of DNA damage-induced NF-κB signaling were defined by setting cut-off criteria (black line). […] (C) IC50 determination for MW01 (left) and MW05 (right) of p65 nuclear translocation, following either etoposide or TNFα treatment. […] IC50 noted with a dotted line. (D) Structures of compounds selected as leads for further analysis, MW01 (5-Hydroxy-10,11-dimethoxy-9H-benzo[c]indolo[3,2,1-ij][1,5]naphthyridin-9-one) and MW05 (3-Amino-7-methoxypyrazolo[3,4-b]quinolin-1-yl)-[3-(dimethylamino)phenyl]methanone). (E) Western blot analysis (top) and quantification (bottom) of NF-κB subunit p65 phosphorylation (S536) following 1-hour pre-treatment with DMSO, MW01 (10 µM), or MW05 (10 µM), in unstimulated, after 90 min irradiation (IR, 20 Gy), or after 20 min TNFα (10 ng/mL) conditions in U2- OS cells. B-actin was used as loading control after. The p-p65 signal was first normalized to β-actin loading control per sample, then each value to DMSO-treated unstimulated to evaluate relative activation of NF-κB. Ns: not significant; ***: p<0.001.
NF-κB was stimulated by DNA damage through either 20 Gy irradiation (IR) and analyzed after 90 minutes or by 10 ng/ml TNFα and analyzed after 20 minutes unless otherwise noted.
All compounds were pre-treated for 1-hour prior to NF-κB stimulation unless otherwise noted.
Cells were collected by scraping and lysed in Baeuerle lysis buffer supplemented with Protease (Thermo Fisher Scientific, 78429) and Phosphatase (Thermo Fisher Scientific, 78420) inhibitors after the appropriate treatment and time point. Proteins were quantified by Bradford assay (Bio-Rad, 5000006) and 20-50 µg of extracted proteins were loaded on 4-20% Protein Gel (Bio-Rad, 4568096) and then transferred onto a PVDF membrane (Bio-Rad, 1620177) using Tris-Glycine buffer with 20% of methanol. Blocking was performed for 1h with 5% not-fat dry milk in PBS 1X. Immunodetection was obtained using primary and secondary antibodies reported in Key Resources Table. The membranes were analyzed by ECL (Thermo Fisher Scientific, 34580) and detected by ChemiDoc XRS+ (Bio-Rad) using ImageLab software (Bio-Rad).

CLK3 = target: T1, CLK3 (Homo sapiens, UniProt P49761); test: Kinase panel study; assay type: biochemical; details: for CLK3 inhibition: in vitro kinase assay, isoform specificity; for inhibition at 10 µM: CLK3, compound at 10µM
T1 construct: purchased Thermo Fisher Scientific
Experimental: The Kinase panel study was entirely provided by Thermo Fisher Scientific using the two lead compounds MW01 and MW05 as well as their derivatives (MW01-E06, MW01-E10, MW01-E14, MW01-E18, MW05-E2, MW05-E3, MW05-E9 and MW05-E10. The experiment was performed using the ZLyte or Adapta protocol according to manufacturer standard operating procedures. […]

CLK1 = target: T2, CLK1 (Homo sapiens, UniProt P49759); test: Kinase panel study; assay type: biochemical
T2 construct: purchased Thermo Fisher Scientific
Experimental: (§1) The Kinase panel study was entirely provided by Thermo Fisher Scientific using the two lead compounds MW01 and MW05 as well as their derivatives (MW01-E06, MW01-E10, MW01-E14, MW01-E18, MW05-E2, MW05-E3, MW05-E9 and MW05-E10. The experiment was performed using the ZLyte or Adapta protocol according to manufacturer standard operating procedures.
(§2) Based on their similar effects in our screen and molecular analysis, MW01 and MW05 were used in comparative target deconvolution studies seeking common targets despite their distinct structures. To eliminate previously identified kinases regulating NF-κB activity, such as IKK, as possible targets of MW01 and MW05, an in vitro kinase inhibition assay was performed. […] We next investigated if any of the shared kinase targets of MW01 and MW05 play a role in genotoxic stress-induced NF-κB activity and established several criteria to narrow down pathway-relevant targets. Considering the similar NF-κB inhibition phenotypes of both compounds, we hypothesized first that the target should be shared by both lead compounds. Second, based on the CaCo2 recovery values and experimental treatment concentration of 10 µM), the putative target kinase should have a low IC50 of, at most, 2000 nM for both lead compounds in the in vitro kinase panel (Fig. 2A). Based on these criteria alone, we arrived at a relatively short list of potential targets for further analysis, leaving only PIK3CG, PIK3C2G, and CLK2 (Fig. 2B). IC50 values for PIK3C2G by both lead compounds agreed best with these criteria, but RNA expression analysis indicates high tissue specificity as well as lack of expression of this kinase in our U2-OS model cell line, which we then eliminated from further analysis (Uhlén et al., 2015). […] Table 6: Percentage of inhibition of the indicated kinases by MW01 or MW05 at either 10 µM or 1 µM. n.d. = not determined. […]

CLK2 = target: T3, CLK2 (Homo sapiens, UniProt P49760); test: Kinase panel study; assay type: biochemical; details: for inhibition at 1 µM: 1000nM; for IC50: in vitro kinase panel
T3 construct: purchased Thermo Fisher Scientific
Experimental: as §1, §2
(§3) To validate the structural backbones of MW01 and MW05 and leverage additional structures in discerning on- and off-target activity, we screened more than 30 structural derivatives for similar NF-κB pathway inhibition compared to our lead compounds following irradiation or TNF stimulation (Table 1 and 2). Several structural derivatives of each lead compound were identified which reduced p-p65 and NFKBIA expression in an irradiation-specific manner. (Fig 3A, B, C, Fig. 8). […] As expected for structurally similar derivatives, kinase inhibition profiles of active derivatives were similar to the respective lead compounds, validating the common structural backbones of each as kinase inhibitors. However, inhibition of several kinases was lost some derivatives of MW01 and MW05, including PI3K isoforms, adding further evidence that the NF-κB inhibition by our compounds is not mediated by inhibition of these kinases. […] Considering the phenotypic similarity between two structurally distinct lead compounds, the agreement of the derivatives with our kinase IC50 criteria, and significant results following siRNA knockdown of CLK2 and CLK4, we proceeded to further characterize our lead compounds.

CLK4 = target: T4, CLK4 (Homo sapiens, UniProt Q9HAZ1); test: Kinase panel study; assay type: biochemical
T4 construct: purchased Thermo Fisher Scientific
Experimental: as §1, §2, §3

[2] = 10000nM, read-out: Percentage of inhibition
[3] = first CLK2 line of the table, read-out: Percentage of inhibition
[4] = second CLK2 line of the table, read-out: Percentage of inhibition
[5] = 10000nM, first CLK2 line of the table, read-out: Percentage of inhibition
[6] = 10000nM, second CLK2 line of the table, read-out: Percentage of inhibition
[7] = CLK1, compound at 10µM, read-out: % of Inhibition
[8] = CLK2, compound at 10µM, read-out: % of Inhibition
[9] = CLK4, compound at 10µM, read-out: % of Inhibition

T3 sequence (P49760 whole entry): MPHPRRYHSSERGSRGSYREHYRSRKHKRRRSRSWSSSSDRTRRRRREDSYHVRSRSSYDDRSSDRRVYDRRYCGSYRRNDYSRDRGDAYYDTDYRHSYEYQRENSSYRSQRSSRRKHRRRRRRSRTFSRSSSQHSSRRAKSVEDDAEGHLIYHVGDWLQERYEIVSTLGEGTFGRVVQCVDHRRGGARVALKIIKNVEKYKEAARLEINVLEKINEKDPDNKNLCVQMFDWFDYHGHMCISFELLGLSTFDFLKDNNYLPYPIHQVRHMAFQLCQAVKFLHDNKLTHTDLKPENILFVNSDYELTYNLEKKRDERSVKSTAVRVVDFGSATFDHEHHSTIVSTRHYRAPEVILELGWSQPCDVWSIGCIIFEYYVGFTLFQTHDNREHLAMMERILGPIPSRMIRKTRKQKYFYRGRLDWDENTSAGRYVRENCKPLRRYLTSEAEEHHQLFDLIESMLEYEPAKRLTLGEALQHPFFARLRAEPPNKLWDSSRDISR
T4 sequence (Q9HAZ1 whole entry): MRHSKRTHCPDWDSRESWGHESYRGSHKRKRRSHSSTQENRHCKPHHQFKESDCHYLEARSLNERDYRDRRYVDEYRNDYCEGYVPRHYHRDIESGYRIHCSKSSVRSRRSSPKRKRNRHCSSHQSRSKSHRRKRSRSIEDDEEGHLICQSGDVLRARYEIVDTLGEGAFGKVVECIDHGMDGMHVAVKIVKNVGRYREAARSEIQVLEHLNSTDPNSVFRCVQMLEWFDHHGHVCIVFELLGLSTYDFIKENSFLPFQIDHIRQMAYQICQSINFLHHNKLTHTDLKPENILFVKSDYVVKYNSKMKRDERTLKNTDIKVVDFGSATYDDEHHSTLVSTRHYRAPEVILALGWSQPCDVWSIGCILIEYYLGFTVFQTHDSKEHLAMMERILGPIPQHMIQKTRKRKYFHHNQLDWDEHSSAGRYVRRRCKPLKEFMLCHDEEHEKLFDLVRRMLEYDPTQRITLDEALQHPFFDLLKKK
T2 sequence (P49759 whole entry): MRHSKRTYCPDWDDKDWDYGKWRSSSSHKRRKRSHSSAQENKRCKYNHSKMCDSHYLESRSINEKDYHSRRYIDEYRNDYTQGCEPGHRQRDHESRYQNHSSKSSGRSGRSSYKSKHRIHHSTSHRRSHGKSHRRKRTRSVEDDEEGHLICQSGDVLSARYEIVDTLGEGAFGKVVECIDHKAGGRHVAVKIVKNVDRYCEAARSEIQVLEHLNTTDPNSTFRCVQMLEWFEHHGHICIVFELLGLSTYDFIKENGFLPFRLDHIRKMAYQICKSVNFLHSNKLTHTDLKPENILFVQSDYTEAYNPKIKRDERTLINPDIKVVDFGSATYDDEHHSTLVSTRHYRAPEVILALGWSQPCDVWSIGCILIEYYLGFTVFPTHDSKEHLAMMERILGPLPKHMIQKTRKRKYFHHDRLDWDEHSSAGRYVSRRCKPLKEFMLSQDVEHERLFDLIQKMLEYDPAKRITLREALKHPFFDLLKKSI
T1 sequence (P49761 whole entry, canonical isoform): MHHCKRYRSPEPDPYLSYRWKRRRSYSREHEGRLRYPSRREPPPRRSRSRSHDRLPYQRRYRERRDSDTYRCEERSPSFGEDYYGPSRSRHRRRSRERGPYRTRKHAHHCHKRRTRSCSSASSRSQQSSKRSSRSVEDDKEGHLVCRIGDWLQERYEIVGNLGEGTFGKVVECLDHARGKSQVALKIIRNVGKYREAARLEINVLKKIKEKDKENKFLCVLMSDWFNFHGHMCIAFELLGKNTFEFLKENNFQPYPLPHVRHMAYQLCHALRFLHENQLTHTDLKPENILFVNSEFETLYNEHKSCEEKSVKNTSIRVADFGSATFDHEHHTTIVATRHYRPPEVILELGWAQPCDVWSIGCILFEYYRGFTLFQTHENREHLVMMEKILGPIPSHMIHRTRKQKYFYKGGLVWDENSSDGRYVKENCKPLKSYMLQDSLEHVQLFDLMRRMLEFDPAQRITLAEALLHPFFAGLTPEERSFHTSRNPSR

Row | inhibition at 10 µM (CLK3) [%] | inhibition at 10 µM (CLK1; [7]) [%] | inhibition at 10 µM (CLK2; [8]) [%] | inhibition at 10 µM (CLK4; [9]) [%] | CLK2 inhibition (CLK2; in vitro kinase assay) | SMILES | upregulation of anti-apoptotic NF-κB target gene BIRC3 (BIRC3) | phosphorylation of p65 at serine 536 after DNA damage [1] | CLK3 inhibition (CLK3) | inhibition at 10 µM (CLK1; [2]) [%] | inhibition at 1 µM (CLK2; [3]) [%] | inhibition at 1 µM (CLK2; [4]) [%] | inhibition at 10 µM (CLK2; [5]) [%] | inhibition at 10 µM (CLK2; [6]) [%] | IC50 (CLK2) [nM] | inhibition at 10 µM (CLK4; [2]) [%] | activity in cell-based NF-κB activation assays [1]
1 |  |  |  |  |  | COc1ccc2cc3c(N)nn(C(=O)c4cccc(N(C)C)c4)c3nc2c1 [MW05, (3-Amino-7-methoxypyrazolo[3,4-b]quinolin-1-yl)-[3-(dimethylamino)phenyl]methanone] | abolished | significantly reduced | largely spare CLK3 | 73 | 40 | 40 | 86 | 72 | 1440 | 94 | 
2 | 35 | 61 | 70 | 98 |  | O=c1c2cnccc2c2nccc3c4cc(O)ccc4n1c32 [MW01-E18, 5-hydroxy-1,11,16-triazapentacyclo[10.7.1.0^2,^7.0^8,^20.0^13,^18]icosa-2(7),3,5,8(20),9,11,13(18),14,16-nonaen-19-one] |  |  |  |  |  |  |  |  |  |  | 
3 | 35 | 69 | 70 | 99 |  | O=c1c2cc(O)ccc2c2nccc3c4cc(O)ccc4n1c32 [MW01-E10, 5,16-dihydroxy-1,11-diazapentacyclo[10.7.1.0^2,^7.0^8,^20.0^13,^18]icosa-2(7),3,5,8(20),9,11,13(18),14,16-nonaen-19-one] |  |  |  |  |  |  |  |  |  |  | 
4 | 7 | 6 | 20 | 67 |  | COc1ccc2c(c1)c1ccnc3c4ccnc(OC)c4c(=O)n2c13 [MW01-E14, 5,17-dimethoxy-1,11,16-triazapentacyclo[10.7.1.0^2,^7.0^8,^20.0^13,^18]icosa-2(7),3,5,8(20),9,11,13(18),14,16-nonaen-19-one] |  |  |  |  |  |  |  |  |  |  | inactive
5 |  |  |  |  |  | COc1ccc2c(c1OC)c(=O)n1c3ccc(O)cc3c3ccnc2c31 [MW01, 5-Hydroxy-10,11-dimethoxy-9H-benzo[c]indolo[3,2,1-ij][1,5]naphthyridin-9-one] | abolished | significantly reduced | largely spare CLK3 | 88 | 78 | 78 | 91 | 91 | 360 | 91 | 
6 | 9 | 10 | 18 | 58 |  | COc1ccc2c(c1)c1ccnc3c4nc(OC)ccc4c(=O)n2c13 [MW01-E6, 5,15-dimethoxy-1,11,14-triazapentacyclo[10.7.1,0^2,7.0^8,^20.0^13,^18]icosa-2(7),3,5,8(20),9,11,13(18),14,16-nonaen-19-one] |  |  |  |  |  |  |  |  |  |  | inactive
7 | 5 | 16 | 74 | 75 | inhibited CLK2 | COc1ccc2nc3c(cc2c1)c(N)nn3C(=O)c1cccc(N(C)C)c1 [MW05-E2, 1-[3-(dimethylamino)benzoyl]-6-methoxy-1H-pyrazolo[3,4-b]quinolin-3-amine] |  |  |  |  |  |  |  |  |  |  | inactive; also recorded: lacking activity
